The values below come from patent publication EP0060077A1, “Beta-lactam antibiotics, their preparation and use” (BEECHAM GROUP PLC, priority 1981, dated 1982).

A short description of data set [1]: Tissue stability in mouse kidney homogenate. Format: in vitro ADME. The following applies: 2% mouse kidney homogenate mixed with equal volume of 200 µg/ml antibiotic, 37°C, HPLC; relative to MM13902 as standard (1.0).
Description: (§3) A preparation of 2% mouse kidney homogenate was mixed with equal volumes of a 200 µg/ml solution of the antibiotic to be tested. The stability of the antibiotic at 37°C was studied by removal of aliquots and subjecting them to high pressure liquid chromatographic analysis. The values are given in figures relative to that obtained for MM13902 which is taken as a standard (1.0). Values greater than 1.0 reflect the fold increase in stability relative to MM13902.
Data set [2] can be described thus: Tissue stability in human kidney homogenate (comparable test). Type of data set: in vitro ADME. The note with it: relative to MM13902 as standard (1.0).
Description: as §3
A further data set relates to K. aerogenes T767. Put plainly: MIC (Broth). Type of data set: cell-based. The note with it: Klebsiella aerogenes. From the text:
(§1) MIC DATA (Broth) For sodium (5RS,6RS)-3-[(Z)-2-carba- moylethenylthio)-4,4-dimethyl-6-[(1SR)-1-hydroxyethyl]-7-oxo-l-azabicyclo[3.2.0]hept-2-en-2-carboxylate (32)

The test system of the next data set is E. cloacae N1. Put plainly: MIC (Broth). Type of data set: cell-based. The note with it: Enterobacter cloacae.
Description: as §1

For a further data set, the system named is E. cloacae T753. In words: MIC (Broth). Format: cell-based. The following applies: Enterobacter cloacae.
Description: as §1

The subject of the next data set is E. coli 0111. In words: MIC (Broth). Format: cell-based. The note with it: Escherichia coli.
Description: as §1

The next data set deals with S. pneumoniae CN 33. Put plainly: MIC (Broth). Format: cell-based. The following applies: Streptococcus pneumoniae, CN33.
Description: as §1

In the next data set the test system is E. coli E96. Put plainly: MIC (Broth). Format: cell-based. The following applies: Escherichia coli.
Description: as §1

A further data set concerns K. aerogenes Ba95. Put plainly: MIC (Broth). Type of data set: cell-based. The following applies: Klebsiella aerogenes.
Description: as §1

In a further data set the test system is E. coli JT39. Put plainly: MIC (Broth). Format: cell-based. The note with it: Escherichia coli.
Description: as §1

For a further data set, the system named is S. aureus MB9. Put plainly: MIC (Broth). Type of data set: cell-based. The note with it: Staphylococcus aureus.
Description: as §1

Another data set concerns E. coli E8. Put plainly: MIC (Broth). Type of data set: cell-based. The following applies: Escherichia coli.
Description: as §1

Another data set concerns S. pyogenes CN10. In words: MIC (Broth). Format: cell-based. The following applies: Streptococcus pyogenes.
Description: as §1

For the next data set, the system named is P. vulgaris W091. In words: MIC (Broth). Type of data set: cell-based. The note with it: Proteus vulgaris.
Description: as §1
(§2) MIC DATA (Broth) for sodium (5RS,6RS)-4,4-dimethyl-6- [(1SR)-1-hydroxyethyl]-3-(pyrimidin-2-ylsulphinyl)-7-oxo-1-azabicyclo[3.2.0]hept-2-ene-Z-carboxylate (27)

The next data set has as its system E. coli ESS. In words: MIC (Broth). Type of data set: cell-based. The note with it: Escherichia coli.
Description: as §1, §2

The next data set relates to S. aureus Russell. Put plainly: MIC (Broth). The following applies: Staphylococcus aureus. Format: cell-based.
Description: as §1, §2

The subject of the next data set is C. freundii E8. In words: MIC (Broth). Format: cell-based. The note with it: Citrobacter freundii.
Description: as §1, §2

The next data set concerns P. morganii 1580. Put plainly: MIC (Broth). Type of data set: cell-based. The note with it: Morganella morganii.
Description: as §1, §2

The next data set has as its system S. sonnei MB11 1967. Put plainly: MIC (Broth). Format: cell-based. The note with it: Shigella sonnei, MB111967.
Description: as §1, §2

Another data set concerns S. aureus 1517. In words: MIC (Broth). Type of data set: cell-based. The note with it: Staphylococcus aureus.
Description: as §1, §2

For a further data set, the system named is B. subtilis A. In words: MIC (Broth). Format: cell-based. The note with it: Bacillus subtilis.
Description: as §1, §2

For the next data set, the system named is P. rettgeri Wm16. Put plainly: MIC (Broth). The following applies: Providencia rettgeri. Format: cell-based.
Description: as §1, §2

The next data set relates to S. typhimurium CT10. Put plainly: MIC (Broth). Type of data set: cell-based. The note with it: Salmonella enterica.
Description: as §1, §2

A further data set has as its system S. aureus Oxford. In words: MIC (Broth). Type of data set: cell-based. The following applies: Staphylococcus aureus.
Description: as §1, §2

In a further data set the test system is P. mirabilis 977. In words: MIC (Broth). Type of data set: cell-based. The note with it: Proteus mirabilis.
Description: as §1, §2

The next data set relates to K. aerogenes A. In words: MIC (Broth). The following applies: Klebsiella aerogenes. Type of data set: cell-based.
Description: as §1, §2

In the next data set the test system is E. coli JT39 [E96]. Put plainly: MIC (Broth). Type of data set: cell-based. The note with it: Escherichia coli.
Description: as §2

Another data set concerns E. coli JT410 C4. Put plainly: MIC (Broth). Type of data set: cell-based. The note with it: Escherichia coli, JT410C4.
Description: as §2

A further data set relates to Serratia marcescens US32. Put plainly: MIC (Broth). Format: cell-based.
Description: as §2

The test system of the next data set is E. coli JT 2074. In words: MIC (Broth). Type of data set: cell-based. The following applies: Escherichia coli, JT2074.
Description: as §2

A further data set relates to K. aeogenes BA 9J R+. In words: MIC (Broth). Type of data set: cell-based.
Description: as §2

The subject of the next data set is E. coli 0111 [E8]. Put plainly: MIC (Broth). Format: cell-based. The following applies: Escherichia coli.
Description: as §2

For the next data set, the system named is E. cloacae N1 [T753]. Put plainly: MIC (Broth). Type of data set: cell-based. The following applies: Enterobacter cloacae.
Description: as §2

Read-outs that look alike come from different tables or passages of the source.

In the case of `CC(=O)N/C=C/SC1=C(C(=O)O)N2C(=O)[C@@H]([C@H](C)OS(=O)(=O)O)[C@H]2C1` [MM13902, reference compound], the “Relative Stability” value is recorded as 1.4 in [1] and 1.1 in data set [2].
Take `C[C@H](O)[C@@H]1C(=O)N2C(C(=O)[O-])=C(S/C=C\C(N)=O)C(C)(C)[C@@H]12.[Na+]` (racemic): the “Relative Stability” value turned out to be 10.8 in [1] and 6.9 in [2]. Moreover, the minimal inhibitory concentration (MIC) with K. aerogenes T767 turned out to be 50 µg/mL; against E. cloacae N1, 25 µg/mL; in the data set on E. cloacae T753, 100 µg/mL; in the data set with E. coli 0111, 50 µg/mL; in the data set with S. pneumoniae CN 33, 50 µg/mL; in the data set with E. coli E96 it was 50 µg/mL. Moreover, the MIC with K. aerogenes Ba95 came to 50 µg/mL; against E. coli JT39, 12.5 µg/mL; in the data set with S. aureus MB9 it was 25 µg/mL; in the data set on E. coli E8, 50 µg/mL; against S. pyogenes CN10, 6.2 µg/mL; in the data set on P. vulgaris W091 (W091), 25 µg/mL. Also, the MIC in the data set with E. coli ESS was found to be 3.1 µg/mL; against S. aureus Russell it was 3.1 µg/mL; against C. freundii E8 (E8), 25 µg/mL; against P. morganii 1580 (1580) it was 25 µg/mL; in the data set with S. sonnei MB11 1967, 25 µg/mL; in the data set on S. aureus 1517 (1517), 25 µg/mL. Moreover, the MIC against B. subtilis A was 1.6 µg/mL; against P. rettgeri Wm16 (WM16), 25 µg/mL; in the data set with S. typhimurium CT10 (TYPHIMURIUM) it was 50 µg/mL; against S. aureus Oxford it was 6.2 µg/mL; in the data set with P. mirabilis 977 (977), 25 µg/mL; with K. aerogenes A, 6.2 µg/mL.
In the case of `C[C@H](O)[C@@H]1C(=O)N2C(C(=O)[O-])=C([S+]([O-])c3ncccn3)C(C)(C)[C@@H]12.[Na+]` (mixture of isomers) [Example 22, Sodium (5RS,6RS)-4,4-dimethyl-6-((1SR)-1-hydroxyethyl]-3-(pyrimidin-2-ylsulphinyl)-7-oxo-1-azabicyclo(3.2.0]hept-2-en-2-carboxylate], the MIC with E. coli JT39 [E96] was 50 µg/mL; with E. coli JT410 C4 it was 25 µg/mL; in the data set with Serratia marcescens US32, 100 µg/mL; against E. coli JT 2074, 25 µg/mL; against K. aeogenes BA 9J R+ it was 25 µg/mL; against E. coli 0111 [E8], 25 µg/mL. Further, the MIC came out at 25 µg/mL in the data set on E. cloacae N1 [T753]; 6.2 µg/mL with P. vulgaris W091 (Broth, P. vulgaris W091, read-out: MIC); 1.6 µg/mL in the data set on E. coli ESS (Broth, E. coli ESS, read-out: MIC); 1.6 µg/mL with S. aureus Russell (Broth, S. aureus Russell, read-out: MIC); 25 µg/mL in the data set with C. freundii E8 (Broth, C. freundii E8, read-out: MIC); 25 µg/mL in the data set with P. morganii 1580 (Broth, P. morganii 1580, read-out: MIC). Also, the MIC in the data set with S. sonnei MB11 1967 (Broth, S. sonnei MB11 1967, read-out: MIC) worked out at 50 µg/mL; in the data set with S. aureus 1517 (Broth, S. aureus 1517, read-out: MIC), 25 µg/mL; with B. subtilis A (Broth, B. subtilis A, read-out: MIC) it was 0.8 µg/mL; with P. rettgeri Wm16 (Broth, P. rettgeri Wm16, read-out: MIC) it was 25 µg/mL; in the data set on S. typhimurium CT10 (Broth, S. typhimurium CT10, read-out: MIC), 12.5 µg/mL; in the data set on S. aureus Oxford (Broth, S. aureus Oxford, read-out: MIC), 0.8 µg/mL. In addition, the MIC in the data set with P. mirabilis 977 (Broth, P. mirabilis 977, read-out: MIC) was 25 µg/mL; in the data set on K. aerogenes A (Broth, K. aerogenes A, read-out: MIC), 50 µg/mL.
